Like-named read-outs stand apart in the source and are kept apart here.
Experiments:
[1] = tested on: lymphoma cell line DOHH-2; assay: Standard 6-day growth-death assay, DOHH-2; type: cell-based; settings: single agent or fixed 1:1 combination
Method: The majority cell lines were obtained from GSK BioCat group, American Type Culture Collection (ATCC), or the Deutsche Sammlung von Mikroorganismen and Zellbulturen (DSMZ). All cell lines were maintained in growth medium in T75 cm^2 flasks, incubated at 37° C. with 5% CO2 and split every 3 to 4 days. Growth media conditions and cell line information are detailed in Table 1. Cells were counted using the Vi-Cell Analyzer (Beckman Coulter ViCell) to obtain viable cell counts.
Optimal cell seeding density was determined for all cell lines by monitoring proliferation over a range of seeding densities in 384-well format and identifying the seeding density at which cells grew logarithmically throughout six days. 50 uL of cells per well were plated in 384-well plates at the optimal seeding density in preferred supplemented culture media. Three plates were prepared per cell line and incubated overnight at 37° C. in 5% CO2.
In these studies, lymphoma cell lines were treated with PRMT5 inhibitor, compound A and BCL-2 targeted inhibitor, ABT-199 single agent or in combination using a fixed 1:1 ratio of each inhibitor over a 20-point titration. For compound A single and fixed 1:1 ratio combination with ABT-199 cell proliferation assay, cells were treated in duplicate with a 20-point, two-fold dilution series of Compound A, ABT-199 (≥14 μM top dose) single or combo treatment, and ≤0.15% DMSO final concentration. Plates were incubated for six days at the conditions described above. Cell growth was measured using CellTiter-Glo (Promega) and luminescence signal was detected with a BioTek Synergy Neo microplate reader. A plate of untreated cells was read at the time of compound/biologic addition to determine the T0 value representing the starting number of cells. Data were fit with a four-parameter equation to generate a concentration response curve using Assay Client software.
Results were background corrected by subtraction of values from wells containing no cells, expressed as a percentage of the T0 value (value at time=0), and plotted against compound concentration. The T0 value was normalized to 100% and represents the number of cells present at the time of compound addition. The cellular response was determined for each compound using a 4- or 6-parameter curve fit of cell viability against concentration using Assay Client software. Growth IC50 (gIC50) values correspond to the concentration intersecting the mid-point of the growth window (between DMSO and T0 values). Growth IC100 (gIC100) values correspond to the concentration at which 100% growth inhibition is achieved, based on the growth window. The Ymin−T0 value, a measure of net population cell growth or death, is calculated by subtracting the T0 value (100%) from the Ymin value (%) that is determined from the fit of the concentration response curve. Death EC50 (dEC50) values correspond to the concentration at which 50% net cell death is observed.
Individual curves were quality checked for three criteria: outlier data points, cell growth (population doubling ≥1.5), and proper curve fitting. […] Individual curves were QC checked for outlier data points, cell growth (population doubling ≥1.5), and proper curve fitting. Obvious outlier data points were omitted only as needed to ensure proper curve fit.
For fixed ratio screening, combination activity was assessed by the fold change in gIC50 compared to the 2 single agent curves by dividing the compound ratio as necessary. Combinations showing >3-fold and >5-fold change from single agent are described as below: • Fold changes ≥5 are considered to represent strong synergy. • Fold changes between 3.0 and 4.9 are considered to represent weak synergy. • Fold changes <3 are considered to represent no synergy.

lymphoma cell line DB = assay: Serial dilutions: fixed ABT-199 concentration with Compound A titration, six-day cell proliferation; type: cell-based; settings: for EC50 / IC50: 144 h
Method: Serial dilutions were performed for the combination to ascertain the change in gIC50, gIC100 and dEC50 when the inhibitors are used together in a PRMT5 inhibitor cell proliferation. A first compound plate was prepared where PRMT5 inhibitor, Compound A, was prepared with a 20-point, two-fold dilution series of compound A from column 1 to 20. A second compound plate was prepared using the BCL-2 inhibitor ABT-199. ABT-199 was titrated in a 16-point 2-fold dilution series from row A to Q. A third plate was then created by added equal volume of 12 ul (ABT-199) from each well in the second plate into the corresponding well in the first plate. The third plate comprised rows from A to Q, each row comprising a fixed concentration of ABT-199. Columns 1-20 comprised varying concentrations of compound A from the 20-point dilution. Plates were incubated for six days at the conditions described above. Lymphoma cell line DB was treated with the solution in each of the wells. Cell growth was measured using CellTiter-Glo (Promega) and luminescence signal was detected with a BioTek Synergy Neo microplate reader. A plate of untreated cells was read at the time of compound/biologic addition to determine the T0 value representing the starting number of cells. Data were fit with a four-parameter equation to generate a concentration response curve for each row using Assay Client software. A comparison was made across each row in the third plate to determine, when keeping a fixed concentration of ABT-199, what concentration of compound A is needed to reach the gIC50, gIC100 or dEC50 respectively and the fold change compared to treating the same cell with compound A alone.
Tables 4a-c show the results of the above serial dilution experiments wherein ‘fold change’ is the difference between the amount of compound A needed to achieve gIC50, gIC100 or dEC50 respectively, compared to the amount of compound A needed to achieve gIC50, gIC100 or dEC50 respectively when compound A is given as a single agent.

With `O=C(NC[C@H](O)CN1CCc2ccccc2C1)c1ccnc(NC2CCC2)c1` [Compound A] the EC50 ([1]; Homo sapiens, 144 h, average of n=2, read-out: dEC50) was 1940 nM, the IC50 ([1]; Homo sapiens, 144 h, average of n=2, read-out: gIC50) was 41 nM and the Ymin-T0 ([1]; average of n=2) was −100%. It also gave a gIC100 ([1]; average of n=2) of 1474 nM, an EC50 (lymphoma cell line DB; single agent, six days, read-out: dEC50) of over 7330 nM and an IC50 (lymphoma cell line DB; single agent, six days, read-out: gIC50) of 631 nM. For the same compound, the EC50 (lymphoma cell line DB; with fixed ABT-199 1 nM, six days, read-out: Compound A required for dEC50) was over 7330 nM, the IC50 (lymphoma cell line DB; with fixed ABT-199 1 nM, six days, read-out: compound A required for gIC50) was 445 nM and the EC50 (lymphoma cell line DB; with fixed ABT-199 2 nM, six days, read-out: Compound A required for dEC50) was over 7330 nM. For the same compound, the IC50 (lymphoma cell line DB; with fixed ABT-199 2 nM, six days, read-out: compound A required for gIC50) was 509 nM, the EC50 (lymphoma cell line DB; with fixed ABT-199 4 nM, six days, read-out: Compound A required for dEC50) was over 7330 nM and the IC50 (lymphoma cell line DB; with fixed ABT-199 4 nM, six days, read-out: compound A required for gIC50) was 514 nM. It also gave an EC50 (lymphoma cell line DB; with fixed ABT-199 7 nM, six days, read-out: Compound A required for dEC50) of over 7330 nM, an IC50 (lymphoma cell line DB; with fixed ABT-199 7 nM, six days, read-out: compound A required for gIC50) of 449 nM and an EC50 (lymphoma cell line DB; with fixed ABT-199 14 nM, six days, read-out: Compound A required for dEC50) of over 7330 nM. It also gave an IC50 (lymphoma cell line DB; with fixed ABT-199 14 nM, six days, read-out: compound A required for gIC50) of 387 nM, an EC50 (lymphoma cell line DB; with fixed ABT-199 29 nM, six days, read-out: Compound A required for dEC50) of over 7330 nM and an IC50 (lymphoma cell line DB; with fixed ABT-199 29 nM, six days, read-out: compound A required for gIC50) of 351 nM. For the same compound, the EC50 (lymphoma cell line DB; with fixed ABT-199 57 nM, six days, read-out: Compound A required for dEC50) was 5370 nM, the IC50 (lymphoma cell line DB; with fixed ABT-199 57 nM, six days, read-out: compound A required for gIC50) was 247 nM and the EC50 (lymphoma cell line DB; with fixed ABT-199 115 nM, six days, read-out: Compound A required for dEC50) was 4660 nM. It also gave an IC50 (lymphoma cell line DB; with fixed ABT-199 115 nM, six days, read-out: compound A required for gIC50) of 209 nM, an EC50 (lymphoma cell line DB; with fixed ABT-199 229 nM, six days, read-out: Compound A required for dEC50) of 4660 nM and an IC50 (lymphoma cell line DB; with fixed ABT-199 229 nM, six days, read-out: compound A required for gIC50) of 115 nM. It also gave an EC50 (lymphoma cell line DB; with fixed ABT-199 458 nM, six days, read-out: Compound A required for dEC50) of 3920 nM, an IC50 (lymphoma cell line DB; with fixed ABT-199 458 nM, six days, read-out: compound A required for gIC50) of 119 nM and an EC50 (lymphoma cell line DB; with fixed ABT-199 916 nM, six days, read-out: Compound A required for dEC50) of 2530 nM. For the same compound, the IC50 (lymphoma cell line DB; with fixed ABT-199 916 nM, six days, read-out: compound A required for gIC50) was 78 nM, the EC50 (lymphoma cell line DB; with fixed ABT-199 1833 nM, six days, read-out: Compound A required for dEC50) was 2390 nM and the IC50 (lymphoma cell line DB; with fixed ABT-199 1833 nM, six days, read-out: compound A required for gIC50) was 74 nM. It also gave an EC50 (lymphoma cell line DB; with fixed ABT-199 3666 nM, six days, read-out: Compound A required for dEC50) of 2250 nM, an IC50 (lymphoma cell line DB; with fixed ABT-199 3666 nM, six days, read-out: compound A required for gIC50) of 80 nM and an EC50 (lymphoma cell line DB; with fixed ABT-199 7331 nM, six days, read-out: Compound A required for dEC50) of 2300 nM. The IC50 (lymphoma cell line DB; with fixed ABT-199 7331 nM, six days, read-out: compound A required for gIC50) was 15 nM, the “Fold change over compound A single agent gIC50 (631 nM, most potent of the two agents)” value (lymphoma cell line DB; single agent) was 1.0 and the “Fold change over compound A single agent gIC100 (6489 nM, most potent of the two agents)” value (lymphoma cell line DB; single agent) was 1.0. The gIC100 (lymphoma cell line DB; single agent, six days) was 6.489 µM, the “Fold change over compound A single agent gIC50 (631 nM, most potent of the two agents)” value (lymphoma cell line DB; with fixed ABT-199 1 nM) was 1.4 and the “Fold change over compound A single agent gIC100 (6489 nM, most potent of the two agents)” value (lymphoma cell line DB; with fixed ABT-199 1 nM) was 0.9. For the same compound, the “compound A required for gIC100” value (lymphoma cell line DB; with fixed ABT-199 1 nM, six days) was 7.331 µM, the “Fold change over compound A single agent gIC50 (631 nM, most potent of the two agents)” value (lymphoma cell line DB; with fixed ABT-199 2 nM) was 1.2 and the “Fold change over compound A single agent gIC100 (6489 nM, most potent of the two agents)” value (lymphoma cell line DB; with fixed ABT-199 2 nM) was 0.9. For the same compound, the “compound A required for gIC100” value (lymphoma cell line DB; with fixed ABT-199 2 nM, six days) was 7.331 µM.

Reference: patent US20210386738A1, “COMBINATION OF PRMT5 INHIBITORS AND BCL-2 INHIBITORS” (GLAXOSMITHKLINE INTELLECTUAL PROPERTY DEVELOPMENT LIMITED, priority 2018, published 2021)
